In patent US20070092444A1, “Inhibition of inward sodium currents in cancer” (priority 2003, published 2007):

Legend:
[1] = tested on: ASIC containing channel activity in U87-MG cells; experiment: Single channel recording, outside-out patches from U87-MG cells; format: cell-based, human; settings: 100 μM amiloride
Procedure: FIGS. 23A and B show single channel records of ASIC-containing channel activity in cell attached (FIG. 23A) and outside-out patches (FIG. 23B) from U87-MG cells.
Single channel recording of ASIC containing channel activity in both cell-attached and outside-out patches from U-87MG cells are shown in FIGS. 23A and B, respectively. For cell-attached patches, the pipette solution contained RPMI 1640, matching the external bath solution used for all whole-cell clamped records. For outside-out patches the pipette solution contained (in mM) K-gluconate, 100; KCl, 30; NaCl, 10; HEPES, 20; EGTA, 0.5; ATP, 4; pH 7.2. Membrane potentials for cell-attached patches were determined as the applied potential plus the membrane potential of the cell that was measured in the whole-cell configuration as −60 mV using the pipette solution for outside-out patches. The membrane potential for outside-out patches was the equilibrium potential for sodium plus the applied potential. The average single channel conductance in the cell-attached configuration was 5.7±0.5 pS. This average conductance was calculated from each of the clamp potentials. This was compatible with the observed whole-cell currents. The kinetics of channel opening and closing were relatively slow (on the order of 0.1 to 1 s), consistent to what has been observed for ASIC-like channels in bilayers (FIG. 23A).

[2] = biological target: T1, combination of ASIC1 and ASIC2 (Homo sapiens, UniProt P78348+Q16515); experiment: Acid-activated currents in voltage-clamped Xenopus oocytes expressing ASIC1 and ASIC2; format: cell-based; settings: 400 μM amiloride; pHo 4.0; −60 mV
T1 construct: expressed in transfected cells; host or cells: Xenopus oocytes (cRNA injection)
T1 sequence (P78348 whole entry): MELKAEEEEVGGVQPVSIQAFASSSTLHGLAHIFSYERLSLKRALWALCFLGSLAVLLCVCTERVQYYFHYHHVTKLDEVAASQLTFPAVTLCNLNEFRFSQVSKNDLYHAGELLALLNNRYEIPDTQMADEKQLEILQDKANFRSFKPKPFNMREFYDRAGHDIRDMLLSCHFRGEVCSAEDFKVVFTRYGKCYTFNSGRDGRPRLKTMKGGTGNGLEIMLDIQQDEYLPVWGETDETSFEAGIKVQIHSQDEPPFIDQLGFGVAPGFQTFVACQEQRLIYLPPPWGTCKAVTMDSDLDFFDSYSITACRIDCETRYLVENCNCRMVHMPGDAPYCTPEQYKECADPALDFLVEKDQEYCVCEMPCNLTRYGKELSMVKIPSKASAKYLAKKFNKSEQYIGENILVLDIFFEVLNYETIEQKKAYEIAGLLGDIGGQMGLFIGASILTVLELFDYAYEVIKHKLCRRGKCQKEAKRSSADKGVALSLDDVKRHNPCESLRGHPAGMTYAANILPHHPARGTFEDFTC
T1 sequence (Q16515 whole entry): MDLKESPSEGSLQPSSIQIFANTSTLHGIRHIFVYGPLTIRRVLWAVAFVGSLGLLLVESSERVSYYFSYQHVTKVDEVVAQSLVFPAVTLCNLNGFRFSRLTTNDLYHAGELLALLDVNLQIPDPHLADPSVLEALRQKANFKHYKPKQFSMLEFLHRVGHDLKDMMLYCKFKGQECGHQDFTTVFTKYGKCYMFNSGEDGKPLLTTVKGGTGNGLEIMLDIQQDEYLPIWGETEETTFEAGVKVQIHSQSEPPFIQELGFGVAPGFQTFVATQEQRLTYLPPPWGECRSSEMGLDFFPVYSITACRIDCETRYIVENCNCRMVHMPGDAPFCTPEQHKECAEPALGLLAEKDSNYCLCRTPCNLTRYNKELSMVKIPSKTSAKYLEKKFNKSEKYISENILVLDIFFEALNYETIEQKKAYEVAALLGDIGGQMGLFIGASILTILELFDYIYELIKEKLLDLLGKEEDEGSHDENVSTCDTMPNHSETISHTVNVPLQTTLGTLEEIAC
Description: FIGS. 8A-C show acid-activated ASIC currents in Xenopus oocytes. ASIC 2 (FIG. 8A), ASIC1 (FIG. 8B) and the combination of ASIC2 and ASIC1 (FIG. 8C) were examined. […] Each oocyte served as its own control.
(§1) Membrane potential was held at −60 mV, and the pHo was step decreased to 4.0 for 10 s, and then returned to 7.4 for 30 s before repeating the sequence.
Xenopus oocytes were used to express ASIC1 and ASIC2 mRNA individually and in combination. Oocyte preparation, cRNA injection, and two-electrode voltage clamp recordings were performed as described (33,67-69).
as §1

[3] = tested on: U251-MG brain tumors; experiment: Intracranial U251-MG xenograft in SCID mice; format: in vivo
Procedure: After sacrifice, brain tissue was removed, embedded with paraffin and sectioned (10 μm thick). Sections were stained using hemotoxylin and eosin. Magnifications are 1×, 4× and 20× as indicated.
In these studies, 10^6 U251-MG cells were injected directly into the right hemisphere of thirty SCID mice (FIGS. 27A-C). […] On sacrifice of the animals, the brain of each mouse was sectioned and stained with hemotoxylin and eosin. Do to the nature of the study, no difference in survival between the three groups was noted.

[4] = tested on: U87-MG cells; experiment: Cell growth in culture; format: cell-based, human; settings: 80 nM PcTX1
[5] = tested on: D54-MG glioma cells; experiment: Transwell Migration Assay, D54-MG cells; format: cell-based, human; settings: 3 h, vitronectin
Procedure: 5-8 μm polycarbonate Transwell filters were coated on the lower surface with or vitronectin ([…] in PBS). […] of D54MG cells (400,000 cells/ml were added to the upper chamber), in the presence or absence of benzamil, and migration was allowed to proceed for 3 hours. Migration was determined according to standard procedures (120). N-amidino-3,5-diamino-pyrazinecarboxamide was used as a control.
To begin to investigate the role of the inward Na^+ conductance in the invasive behavior of tumor cells, a Transwell Migration Assay was used to assess cell chemotaxis and invasiveness (FIG. 17). D54-MG cells were plated on the upper side of a filter insert perforated with 5-8 μm holes, and induced to migrate through these pores toward the extracellular matrix protein vitronectin (coated on the underside of the filter). Benzamil, at 10, 20, 50, or 100 μM, was added to both chambers at time 0. After a 3 h migration time, cells were fixed, stained with crystal violet, and counted. BSA-coated filter inserts were used as negative controls. […]
Approximately 10,000 cells were added to the upper side of a filter insert perforated with 5-8 μm holes, and induced to migrate through these pores toward the extracellular matrix protein vitronectin (coated on the underside of the filter). […] Cells were counted on an inverted microscope, averaging five fields per Transwell chamber. […]

Compound	inhibition of channels [1]	inhibition of acid-activated currents [2]	survival ([3]; between the three groups)	tumor foci within the injected hemisphere ([3]; injection once a week for three weeks)	tumor margins ([3]; injection once a week for three weeks, 20× the in vitro inhibitory dose, versus saline or scrambled peptide)	growth of cells in culture [4]	diminished ability to migrate through the filter [5]
N=C(N)NC(=O)c1nc(Cl)c(N)nc1N [amiloride]	completely inhibited	inhibited					
Psalmotoxin 1 [PcTX1]			no difference	one	more clearly delineated	significantly inhibited	> 90%
